From patent US4581359A, “Pharmacological treatments with N-7-substituted derivatives of theophylline” (priority 1984, dated 1986)
Where “and” joins values, the source holds several entries; their conditions need not be identical. Identical values can stand only once. Like-named read-outs stand apart in the source and are kept apart here.

Experiments:
[1] = cited from earlier work
[2] = Single and combined intravenous methyl xanthines in rabbits: heart rate, deaths, plasma concentrations (Example 6); format: in vivo, female rabbits; conditions: for heart rate, individual drug treatment: one rabbit each, normal about 220 bpm
Procedure: T 40 mg/kg of aminophylline infused at the rate of 0.21 ml/min over 30
T/D 40 mg/kg of aminophylline infused at the rate of 0.21 ml/min over 30
T/E 40 mg/kg of aminophylline infused at the rate of 0.21 ml/min over 30
T/P 40 mg/kg of aminophylline infused at the rate of 0.21 ml/min over 30

[3] = Concomitant dyphylline and aminophylline in two horses: plasma concentration, blood pressure, pulse (Example 3); conditions: for Cmax: peak plasma concentration of theophylline
Procedure: Two horses were administered dyphylline and aminophylline concomitantly.
The second horse was given a bolus injection of dyphylline (20 mg/kg as 100 mg/ml solution in D5W) over 15 seconds into the jugular vein. Aminophylline infusion (10 mg/kg dissolved in one liter of D5W) was started immediately and administered over 20 minutes.

[4] = Fatal toxicity of theophylline, repeated aminophylline infusion in rabbits (Example 1); format: in vivo, female New Zealand White rabbits; conditions: for Vd: rabbit, blood, iv
Procedure: Aminophylline (40 mg/kg) was infused into four rabbits over fifteen minutes once every two hours until the rabbits died. After the first infusion, blood concentrations of theophylline averaged about 100 mcg/ml in all four rabbits. […] In the second period total xanthine blood concentrations of theophylline averaged about 250 mcg/ml. Three rabbits died in this period with theophylline blood concentrations of about 250 mcg/ml. One rabbit died shortly after the third infusion which gave a blood theophylline concentration of about 400 mcg/ml. […] The last blood sample for each rabbit was collected immediately after the rabbit died.

[5] = Theophylline (aminophylline) intravenous infusion in rabbits: blood concentration, pharmacokinetics, toxicity (Example 1); format: in vivo, female New Zealand White rabbits; conditions: for visible toxicity: aminophylline 40 mg/kg over 15 minutes, three rabbits
Procedure: Analytical grade chemicals were used without further purification. All water was distilled prior to use. 250 mg/10 ml aminophylline injection (Searle Laboratories, Chicago, Ill.) was diluted with an appropriate amount of distilled water for injection. Dyphylline powder (Lemmon Company, Sellersville, Pa.) was dissolved in distilled water for injection.
A high-pressure liquid chromatographic (HPLC) system consisted of a delivery pump (M-6000A, Waters Associates, Milford, Mass.), sample injection apparatus (Model U6K, Waters Associates, Milford, Mass.), 30-cm reverse phase column (μBondapak C18, Waters Associates, Milford, Mass.), UV detector (Model 440, Waters Associates, Milford, Mass.) with wavelength of 280 nm and a dual pen recorder (Soltec Co., Encino, Calif.) which were used at ambient temperature.
The internal standard used was β-hydroxypropyl theophylline (Aldrich Chemical Co., Inc., Milwaukee, Wis.) in acetonitrile which was prepared in a 500 ml volumetric flask as a stock solution, and kept tightly sealed except during use throughout the experiment. Internal standard solution (0.4 ml) was added to an equal volume (0.4 ml) of sample to precipitate protein. After centrifuging for 10 minutes, the supernatant was injected into the HPLC. The HPLC operating conditions included a mobile phase composed of acetonitrile (6 percent V/V) in distilled water and a flow rate of 2.0 ml/min.
A typical semilogrithmic plot of a blood theophylline concentration versus time curves, for each of the three rabbits after a zero-order aminophylline infusion of 40 mg/kg over fifteen minutes, is shown in FIG. 2. The data were fitted to a two-compartment open pharmacokinetic model with first order elimination using PROPHET (PROPHET computer system, FIT FUN routine, Director, Chemical/Biological Information Handling Program, Division of Research Resources, NIH, Bethesda, MD.) The parameters generated from three rabbits were corrected for infusion time, (as described by Gibaldi) and are listed in Table II.

[6] = tested on: mediator-induced broncoconstriction; conditions: cited from earlier work
[7] = cited from earlier work; remark: listed apart in the source
[8] = in vivo; cited from earlier work
[9] = Plasma and cerebral spinal fluid concentrations in an anesthetized horse (Example 4); conditions: 0, 30 mins, 1 hour, 2 hours, 3 hours, 4 hours, 24 hours; for Cerebral spinal fluid concentration, theophylline: aminophylline 10 mg/kg + dyphylline 20 mg/kg bolus
Procedure: (§1) One horse was administered acetyl promazine thiamyol sodium, quaifensin, and halothane to produce general anesthesia. Dyphylline (20 mg/kg) was given as an intravenous bolus injection in less than 15 seconds and aminophylline (10 mg/kg) was given as an infusion over about 20 minutes. Plasma and cerebral spinal fluid were collected and assayed by high pressure liquid chromatography for both dyphylline and theophylline.

[10] = cited from earlier work; remark: listed apart in the source
[11] = Concurrent administration of theophylline and dyphylline in rabbits: pharmacokinetics and toxicity (Example 1); conditions: rabbit, iv, 40 mg/kg
Procedure: All experiments of this example were performed using female New Zealand White rabbits. These rabbits (2.4-3.6 kg) were housed in a controlled environment and allowed free access to water and food.
Before dosing with drug the rabbit ear hair was clipped and treated with hair remover lotion (sold under the trademark NAIR, Carter-Wallace, Inc., New York, N.Y.), a catheter (Quick-Cath, 20 Ga, Travenol Laboratories, Inc., Deerfield, Ill.) and sterile intermittent infusion plug were then inserted in the rabbit's ear vein for infusion. […] For each separate administration of theophylline, a suitable amount of aminophylline (40 mg/kg) was dissolved in distilled water to make 10 ml injectable solution which was administered into a rabbit's ear vein as a continuous infusion over a period of 15 minutes.
Blood samples were collected from an ear vein (in the opposite ear from the infusion) at predetermined time intervals. Before collecting each sample, the rabbit ear was treated topically with xylene to dilate the ear vein for convenient sample collection. Immediately after each blood sample was drawn, 0.4 ml of blood was transfered to the centrifuge tube and 0.4 ml of acetronitrile with appropriate internal standard was added to precipitate the protein and extract drug components. After vortexing well, the blood acetonitrile mixture was centrifuged at 3000×G for ten minutes, and 10 μl of supernatent solution was then injected into the HPLC.
The post infusion data of theophylline were fitted to a two-compartment open model using the same procedure as described above. Although samples were collected while infusion of dyphylline was continuing, only post infusion data were used for dyphylline pharmacokinetic analysis.

[12] = in vivo
Procedure: as §1

[13] = Winter; cited from earlier work

CC(O)Cn1cnc2c1c(=O)n(C)c(=O)n2C (stereo not drawn) [proxyphylline, 7-β-hydroxypropyl-theophylline]
plasma concentration of proxyphylline ([1]; combined with theophylline and dyphylline (Bracher; Werdermann)): less than 9.0 mcg/ml | plasma concentration, each drug ([1]; dyphylline and proxyphylline (Joos et al.), 90 min): about 13 mcg/ml | heart rate, individual drug treatment [2]: about 96 bpm

Cn1c(=O)c2[nH]cnc2n(C)c1=O [aminophylline]
Pulse, Horse 1 ([3]; 10 min to 240 min as for systolic, Horse 1, time 0: 42): 44 beats per minute and 60 beats per minute and 56 beats per minute | Blood pressure Mean, Horse 1 ([3]; 10 min to 240 min as for systolic, Horse 1, time 0: 119): 106 and 156 and 123 | Blood pressure D, Horse 1 ([3]; 10 min to 240 min as for systolic, Horse 1, time 0: 156/98): 83 and 117 and 90 | toxicity and death ([4]; aminophylline 40 mg/kg every two hours until death): All the rabbits died following a short period of severe convulsions | visible toxicity [5]: caused some visible toxicity but was not lethal

Cn1c(=O)c2c(ncn2CCO)n(C)c1=O [etophylline, β-hydroxyethylthophylline]
activity relative to theophylline ([6]; based on effective plasma drug concentrations): 0.44 times theophylline | conversion to theophylline in the body ([7]; in vivo): not converted to theophylline in the body | heart rate, individual drug treatment [2]: 100 bpm

Cn1c(=O)c2c(ncn2CC(=O)O)n(C)c1=O [acephylline, 1,3-dimethylxanthinylacetic acid]
efficacy against mediator-induced broncoconstriction ([6]; guinea-pigs): ineffective | conversion to theophylline in the body ([7]; literature): not converted to theophylline in the body | oral absorption [8]: not absorbed orally

Cn1c(=O)c2[nH]cnc2n(C)c1=O [theophylline]
Cerebral spinal fluid concentration, theophylline [9]: 0 µg/mL | Cerebral spinal fluid concentration, theophylline ([9]; 10 mg/kg): 5.3 µg/mL | Plasma concentration, theophylline ([9]; aminophylline 10 mg/kg over 20 min + dyphylline 20 mg/kg bolus): 0 ng/mL | concentration at 40 min ([3]; horse, in vivo, iv, 10 mg/kg): 9 to 10 µg/mL | Cmax ([3]; horse, in vivo, iv, 10 mg/kg, first horse, aminophylline 10 mg/kg over 17 minutes, dyphylline 20 mg/kg bolus at 40 minutes): 18 µg/mL | Cmax ([3]; horse, in vivo, iv, 10 mg/kg, second horse, dyphylline 20 mg/kg bolus then aminophylline 10 mg/kg over 20 minutes): 35 µg/mL | tissue distribution ([7]; literature): penetrate the central nervous system, to infiltrate heart tissue and to distribute to lung tissue | effective plasma concentration ([10]; humans): 10 to 20 µg/mL | effectiveness and toxicity, dyphylline versus theophylline ([10]; literature): more effective and toxic than dyphylline | effects of excessive dose or too rapid administration ([10]; total dose in less than about twenty minutes): blood pressure drop and may develop convulsions which in some instances lead to death | average blood concentration of theophylline after first infusion ([4]; four rabbits, all survived first period, 40 mg/kg): about 100 mcg/ml | volume of distribution (Vd), individual rabbits ([4]; from FIG. 3 data 1 to 2 hours, prior to second infusion, 40 mg/kg): 0.32 L/kg and 0.33 L/kg | blood theophylline concentration after third infusion (rabbit died) ([4]; one rabbit, 40 mg/kg): about 400 mcg/ml | Vd ([4]; 40 mg/kg, from FIG. 3 data 1 to 2 hours, prior to second infusion, read-out: volume of distribution (Vd), individual rabbits): 0.37 L/kg | Vd ([4]; 40 mg/kg, from FIG. 3 data 1 to 2 hours, four rabbits, read-out: volume of distribution (Vd), average): 0.35 L/kg | average blood concentration of theophylline, second period (three rabbits died) ([4]; second infusion, 40 mg/kg): about 250 mcg/ml | theophylline concentration causing convulsions and death ([4]; theophylline alone): ~250 µg/mL | toxicity ([2]; rabbits): close to lethal | visible toxicity [5]: one rabbit exhibited obvious signs of theophylline toxicity | t1/2 ([5]; aminophylline 40 mg/kg, alone, rabbits 29, 30, 32, mean, 40 mg/kg): 6.3 h and 6.861 h and 6.30 h | Vd ([5]; rabbit, in vivo, iv, 40 mg/kg, Vd): 0.279 L/kg | Vd ([5]; rabbit, in vivo, iv, 40 mg/kg, Vel (β)): 0.562 L/kg | half-life ([5]; rabbit, in vivo, iv, 40 mg/kg, aminophylline 40 mg/kg, alone, rabbits 29, 30, 32, mean): 5.73 h | concentration at 0.25 h ([5]; rabbit, in vivo, iv, 40 mg/kg, average blood concentration of theophylline immediately after stopping the infusion, Table II rabbits): ~100 µg/mL | Vd ([5]; rabbit, in vivo, iv, 40 mg/kg, average total volume of distribution of theophylline given alone): ~0.59 L/kg | concentration at 0.25 h ([5]; rabbit, in vivo, iv, 40 mg/kg, blood concentration of theophylline when the infusion was stopped): 110 to 130 µg/mL | k el ([5]; rabbit, in vivo, iv, 40 mg/kg, k10): 6.75e-05 s⁻¹ | Vd ([11]; in vivo, Vd(B), theophylline followed by dyphylline, b237, b241, b245, b249 rabbits 45-48, b250 mean): 0.35 L/kg | concentration at 0.25 h [11]: ~150 µg/mL | Vd ([11]; Vc): 0.151 L/kg | Vd ([11]; Vd(B)): 0.403 L/kg | half-life ([11]; average half-life of theophylline): 6 to 6.5 h | Vd ([11]; average total volume of distribution of theophylline given with dyphylline): ~0.35 L/kg | penetration into cerebral spinal fluid [12]: penetrate into cerebral spinal fluid | total volume of distribution, average [13]: about 0.48 L/kg
